Measurements taken from US20180127464A1, “NOVEL EPHA4 INHIBITORS TARGETING ITS LIGAND BINDING DOMAIN” (Sanford-Burnham Medical Research Institute, priority 2015, published 2018).
Where a SMILES comes first, the peptide text is derived from it. [ ]: non-standard residue; d: D form. Trp(5-OH) = N[C@@H](Cc1c[nH]c2ccc(O)cc12)C(=O)O; Phe(4-Cl) = N[C@@H](Cc1ccc(Cl)cc1)C(=O)O; 4Pal = N[C@@H](Cc1ccncc1)C(=O)O; Ava = NCCCCC(=O)O

Experiments:
[1] = biological target: EphA4 ligand binding domain (UniProt P54764); assay: FPA, displacement of FITC-KYL peptide from EphA4 LBD; grade legend: 5 µM ≤ C
Chain of EphA4 ligand binding domain (P54764 29-209 limits assumed): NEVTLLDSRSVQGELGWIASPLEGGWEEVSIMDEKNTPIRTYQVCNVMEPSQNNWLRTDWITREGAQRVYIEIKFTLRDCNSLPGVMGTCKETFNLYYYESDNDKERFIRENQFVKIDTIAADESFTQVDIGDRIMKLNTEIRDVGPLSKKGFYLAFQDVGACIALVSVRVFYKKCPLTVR

EphA4 LBD [2] = biological target: T1, EphA4 LBD (Homo sapiens, UniProt P54764); assay: Fluorescence polarization assay (FPA), displacement of FITC-labeled KYL peptide; assay type: binding; details: PBS pH 7.2
Procedure: Fluorescence Polarization Assay (FPA):
The EphA4 binding KYL peptide ([…], Murai et al. Mol. Cell. Neurosci. 2003, 24:1000-1011) was labeled at the N-terminus with fluorescein isothiocyanate (FITC) and purified by HPLC. For competitive binding assays, 1 μL of 200 μM EphA4 LBD was pre-incubated with the tested compounds at various concentrations in 98 μL PBS (pH=7.2) in 96-well black plates at room temperature for 10 min, and then 1 μL of 500 μM FITC labeled EphA4 peptide was added to produce a final volume of 100 μL. The KYL and DMSO were incubated in each assay as positive and negative controls, respectively. After 30 min of incubation at room temperature, the polarization values in millipolarization units were measured at excitation/emission wavelengths of 480/535 nm with a multilabel plate reader (PerkinElmer, Waltham, Mass., USA). Ki value was determined by fitting the experimental data to a Sigmoidal dose-response (variable slope) nonlinear regression model (GraphPad Prism version 5.01 for Windows, GraphPad Software, San Diego, Calif., USA).
(§1) (B) EphA4-LBD was dissolved in 50 mM potassium phosphate buffer (pH 6.5), containing 100 mM NaCl. ITC were measured.
Target sequence in this assay (P54764 30-209 limits assumed): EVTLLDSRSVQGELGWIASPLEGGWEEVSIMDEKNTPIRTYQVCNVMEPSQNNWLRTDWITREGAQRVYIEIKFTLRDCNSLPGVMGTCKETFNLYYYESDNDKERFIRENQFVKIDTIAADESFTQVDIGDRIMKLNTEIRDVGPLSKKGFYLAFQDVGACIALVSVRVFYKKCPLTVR

EphA4 LBD [3] = biological target: T1, EphA4 LBD; assay: Isothermal titration calorimetry (ITC); assay type: binding; details: 25° C., PBS with 10% DMSO
Procedure: Isothermal Titration Calorimetry (ITC):
(§2) isothermal titration calorimetry (ITC) to measure binding constant was performed on a Model ITC200 calorimeter from Microcal/GE Life Sciences. When indicated, measurements were performed in a reverse way—i.e., the protein was titrated into the compound solution. A total of 8 μl EphA4 solution (1.65 mM) was injected into the cell containing 165 µM of compound per injection. All titrations were performed at 25° C. in PBS buffer supplemented with 10% DMSO. Experimental data were analyzed using Microcal Origin software provided by the ITC manufacturer (Microcal).
as §1

EphA2 receptor = EphA2 receptor (Homo sapiens, UniProt P29317); assay: ITC with EphA2 receptor; assay type: binding; details: same experimental conditions as EphA4 ITC
Chain of EphA2 receptor (P29317 24-976): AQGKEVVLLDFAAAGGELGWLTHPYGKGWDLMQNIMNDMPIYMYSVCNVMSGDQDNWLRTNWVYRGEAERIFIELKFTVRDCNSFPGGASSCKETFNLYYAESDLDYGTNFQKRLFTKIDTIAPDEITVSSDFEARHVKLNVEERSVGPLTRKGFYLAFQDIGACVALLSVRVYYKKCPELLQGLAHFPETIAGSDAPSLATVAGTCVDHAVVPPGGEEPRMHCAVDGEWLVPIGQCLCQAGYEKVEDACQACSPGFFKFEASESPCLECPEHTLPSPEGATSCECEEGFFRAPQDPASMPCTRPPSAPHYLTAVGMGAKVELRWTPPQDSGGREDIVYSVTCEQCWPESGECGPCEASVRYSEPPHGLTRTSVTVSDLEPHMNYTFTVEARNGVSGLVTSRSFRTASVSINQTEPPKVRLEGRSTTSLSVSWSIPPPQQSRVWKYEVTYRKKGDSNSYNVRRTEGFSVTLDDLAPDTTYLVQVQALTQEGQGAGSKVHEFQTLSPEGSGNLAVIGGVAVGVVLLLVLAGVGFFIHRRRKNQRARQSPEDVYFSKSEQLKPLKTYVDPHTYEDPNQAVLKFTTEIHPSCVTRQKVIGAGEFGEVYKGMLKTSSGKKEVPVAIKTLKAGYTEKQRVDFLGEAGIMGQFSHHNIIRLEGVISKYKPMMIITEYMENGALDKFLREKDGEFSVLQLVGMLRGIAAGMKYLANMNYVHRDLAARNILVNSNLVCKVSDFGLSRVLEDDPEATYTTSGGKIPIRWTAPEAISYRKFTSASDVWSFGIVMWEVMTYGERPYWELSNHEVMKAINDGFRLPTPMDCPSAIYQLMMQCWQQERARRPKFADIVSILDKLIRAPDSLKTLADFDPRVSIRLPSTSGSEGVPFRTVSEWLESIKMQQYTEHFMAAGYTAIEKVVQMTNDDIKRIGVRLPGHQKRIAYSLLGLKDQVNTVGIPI
Procedure: as §2

15N-labeled EphA4-LBD = 15N-labeled EphA4-LBD (Homo sapiens, UniProt P54764); assay: 2D-[15N,1H]-HSQC NMR detection of binding; details: 300 K
Chain of 15N-labeled EphA4-LBD (P54764 30-209 limits assumed): as the sequence (P54764 30-209 limits assumed) above
Source text: NMR spectra of ^15N-labeled EphA4-LBD were acquired on 700 MHz Bruker Avance spectrometer equipped with TCI cryoprobe. All NMR data were processed and analyzed using TOPSPIN2.1 (Bruker Biospin Corp., Billerica, Mass., USA) and SPARKY3.1 (University of California, San Francisco, Calif., USA).

SOD1(G93A)-mutant mice [4] = assay: In vivo efficacy in an animal model of ALS
Procedure: Equal number of SOD1(G93A)-mutant mice of the same gender from same litter were randomly divided into two groups (n=12).
FIG. 3. […] The data were analyzed using the Kaplan-Meier method. Animal studies. Equal number of SOD1(G93A)-mutant mice of the same gender from same litter were randomly divided into two groups. […] Animals were assessed daily for the time of onset of hind limb tremor and loss of splay reflex. The endpoint was designated as the point when the mouse could no longer roll over within 10 s after being pushed onto its side. At this stage, mice were killed. Disease onset and survival time were compared using the Kaplan-Meier method. […] Values are given as mean±SD. Preliminary BBB penetration and PK studies were performed by Agilux (Cambridge, Mass.) and in house.

SOD1(G93A)-mutant mice [5] = assay: Pilot study for toxicity and dose in SOD1(G93A)-mutant mice; assay type: in vivo; details: 2 mice
[6] = biological target: EphA4 ligand binding domain (UniProt P54764); assay: ITC; grade legend: A < 1 µM
[7] = biological target: EphA4 ligand binding domain (UniProt P54764); assay: FPA, displacement of FITC-KYL peptide from EphA4 LBD; repeated experiments
EphA4-LBD mutant 159A = EphA4-LBD mutant 159A (UniProt P54764); assay: ITC
Chain of EphA4-LBD mutant 159A (P54764 other isoform, or with tags, fused parts or gaps mutant limits assumed): as the sequence (P54764 29-209 limits assumed) above, with I31A counted along it

EphA4-LBD mutant 159G = EphA4-LBD mutant 159G (UniProt P54764); assay: ITC
Chain of EphA4-LBD mutant 159G (P54764 other isoform, or with tags, fused parts or gaps mutant limits assumed): as the sequence (P54764 29-209 limits assumed) above, with I31G counted along it

[8] = biological target: EphA4 ligand binding domain (UniProt P54764); assay: ITC
EphA4 = EphA4 (Homo sapiens, UniProt P54764); details: previously reported; cited from earlier work
Chain of EphA4 (P54764 20-986, species assumed): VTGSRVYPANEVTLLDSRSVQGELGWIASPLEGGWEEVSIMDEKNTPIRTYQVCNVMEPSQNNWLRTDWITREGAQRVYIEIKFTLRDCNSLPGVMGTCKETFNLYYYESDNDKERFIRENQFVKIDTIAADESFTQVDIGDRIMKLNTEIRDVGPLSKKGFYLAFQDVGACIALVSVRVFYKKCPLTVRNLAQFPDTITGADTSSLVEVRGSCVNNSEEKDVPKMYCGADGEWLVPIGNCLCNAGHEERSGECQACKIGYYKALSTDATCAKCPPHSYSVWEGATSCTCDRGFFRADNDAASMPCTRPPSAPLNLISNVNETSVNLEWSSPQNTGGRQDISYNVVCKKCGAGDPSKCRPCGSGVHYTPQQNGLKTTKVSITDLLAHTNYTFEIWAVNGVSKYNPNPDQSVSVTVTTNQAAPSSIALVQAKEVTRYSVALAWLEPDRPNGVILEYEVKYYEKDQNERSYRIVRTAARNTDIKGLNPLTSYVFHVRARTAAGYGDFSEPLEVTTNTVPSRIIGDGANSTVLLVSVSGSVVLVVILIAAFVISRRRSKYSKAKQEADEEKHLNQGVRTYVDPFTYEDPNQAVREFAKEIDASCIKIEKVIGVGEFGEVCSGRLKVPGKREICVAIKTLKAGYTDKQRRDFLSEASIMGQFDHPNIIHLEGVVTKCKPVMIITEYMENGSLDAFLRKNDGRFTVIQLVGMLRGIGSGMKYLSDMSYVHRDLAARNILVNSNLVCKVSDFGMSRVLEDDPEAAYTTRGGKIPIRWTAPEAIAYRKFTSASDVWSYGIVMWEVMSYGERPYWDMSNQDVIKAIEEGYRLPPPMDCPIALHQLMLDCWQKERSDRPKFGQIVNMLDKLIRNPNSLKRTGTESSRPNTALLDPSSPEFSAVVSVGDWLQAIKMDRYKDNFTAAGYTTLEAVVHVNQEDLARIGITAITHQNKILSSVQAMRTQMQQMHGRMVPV

Compound 11: 4-amino-N-((S)-1-((S)-3-(4-chlorophenyl)-1-((S)-1-(2-(naphthalen-1-yl)ethylamino)-1-oxo-3-(pyridin-4-yl)propan-2-ylamino)-1-oxopropan-2-ylamino)-3-(5-hydroxy-1H-indol-3-yl)-1-oxopropan-2-yl)butanamide (peptide)
Ki [1]: > 5 µM

COc1ccc2c(CCNC(=O)[C@H](Cc3ccncc3)NC(=O)[C@H](Cc3ccc(Cl)cc3)NC(=O)[C@H](Cc3c[nH]c4ccc(O)cc34)NC(=O)CCCN)c[nH]c2c1 [Compound 10, 4-amino-N-((S)-1-((S)-3-(4-chlorophenyl)-1-((S)-1-(2-(6-methoxy-1H-indol-3-yl)ethylamino)-1-oxo-3-(pyridin-4-yl)propan-2-ylamino)-1-oxopropan-2-ylamino)-3-(5-hydroxy-1H-indol-3-yl)-1-oxopropan-2-yl)butanamide]
Ki (EphA4 LBD [2]): 1 to 5 µM | Kd (EphA4 LBD [3]): < 1 µM

NCCCC(=O)N[C@@H](Cc1c[nH]c2ccc(O)cc12)C(=O)N[C@@H](Cc1ccc(Cl)cc1)C(=O)N[C@@H](Cc1ccncc1)C(=O)NCCc1c[nH]c2ccc(F)cc12 [Compound 6, 4-amino-N-((S)-1-((S)-3-(4-chlorophenyl)-1-((S)-1-(2-(5-fluoro-1H-indol-3-yl)ethylamino)-1-oxo-3-(pyridin-4-yl)propan-2-ylamino)-1-oxopropan-2-ylamino)-3-(5-hydroxy-1H-indol-3-yl)-1-oxopropan-2-yl)butanamide]
Ki (EphA4 LBD [2]): 1 to 5 µM

COc1ccc2[nH]cc(CCNC(=O)[C@H](Cc3ccncc3)NC(=O)[C@H](Cc3ccc(Cl)cc3)NC(=O)[C@H](Cc3c[nH]c4ccc(O)cc34)NC(=O)CCCN)c2c1 [Compound 7, 4-amino-N-((S)-1-((S)-3-(4-chlorophenyl)-1-((S)-1-(2-(5-methoxy-1H-indol-3-yl)ethylamino)-1-oxo-3-(pyridin-4-yl)propan-2-ylamino)-1-oxopropan-2-ylamino)-3-(5-hydroxy-1H-indol-3-yl)-1-oxopropan-2-yl)butanamide]
Binding to the EphA2 receptor by ITC (EphA2 receptor): not observed | Binding exchange regime by NMR (15N-labeled EphA4-LBD): slow exchange in the NMR time scale | Effect on disease onset (SOD1(G93A)-mutant mice [4]; 30 mg/Kg i.p. daily in saline): without affecting the disease onset | Kaplan-Meier survival compared to control mice (SOD1(G93A)-mutant mice [4]; 30 mg/kg daily i.p.): increased survival | Average survival time from disease onset to end point (SOD1(G93A)-mutant mice [4]; 30 mg/kg daily i.p. from postnatal day 60, mean±SD, control 28.2±4.2 days, p<0.01): 38.6 ± 5.7 days | Average life span (SOD1(G93A)-mutant mice [4]; 30 mg/kg daily i.p. from postnatal day 60, n=12, mean±SD, control 134.3±7.2 days, p<0.01): 142.8 ± 6.9 days | Signs of toxicity compared to control mice (SOD1(G93A)-mutant mice [5]; 30 mg/Kg daily i.p. for several weeks): no adverse sign of toxicity were observed | Survival in pilot study (SOD1(G93A)-mutant mice [5]; 30 mg/Kg daily i.p.): increased survival

Compound 7: 4-amino-N-((S)-1-((S)-3-(4-chlorophenyl)-1-((S)-1-(2-(5-methoxy-1H-indol-3-yl)ethylamino)-1-oxo-3-(pyridin-4-yl)propan-2-ylamino)-1-oxopropan-2-ylamino)-3-(5-hydroxy-1H-indol-3-yl)-1-oxopropan-2-yl)butanamide (peptide)
Kd [6]: < 1 µM | Ki [7]: 0.5 to 0.66 µM | Kd (EphA4-LBD mutant 159A): 9.09 µM | Kd (EphA4-LBD mutant 159G): 3.66 µM | Kd [8]: 0.45 µM

NCCCC(=O)N[C@@H](Cc1c[nH]c2ccc(O)cc12)C(=O)N[C@@H](Cc1ccc(Cl)cc1)C(=O)N[C@@H](Cc1ccncc1)C(=O)NCCc1c[nH]c2ccc(Cl)cc12 [Compound 9, 4-amino-N-((S)-1-((S)-1-((S)-1-(2-(5-chloro-1H-indol-3-yl)ethylamino)-1-oxo-3-(pyridin-4-yl)propan-2-ylamino)-3-(4-chlorophenyl)-1-oxopropan-2-ylamino)-3-(5-hydroxy-1H-indol-3-yl)-1-oxopropan-2-yl)butanamide]
Ki (EphA4 LBD [2]): 1 to 5 µM

NCCCCC(=O)N[C@@H](Cc1c[nH]c2ccc(O)cc12)C(=O)N[C@@H](Cc1ccc(Cl)cc1)C(=O)N[C@@H](Cc1ccncc1)C(=O)N[C@H](Cc1c[nH]c2ccccc12)C(N)=O [Compound 4, 5-amino-N-((S)-1-((S)-1-((S)-1-((R)-1-amino-3-(1H-indol-3-yl)-1-oxopropan-2-ylamino)-1-oxo-3-(pyridin-4-yl)propan-2-ylamino)-3-(4-chlorophenyl)-1-oxopropan-2-ylamino)-3-(5-hydroxy-1H-indol-3-yl)-1-oxopropan-2-yl)pentanamide] (H-[Ava][Trp(5-OH)][Phe(4-Cl)][4Pal][dW]-NH2)
Ki (EphA4 LBD [2]): 1 to 5 µM

NCCCC(=O)N[C@@H](Cc1c[nH]c2ccc(O)cc12)C(=O)N[C@@H](Cc1ccc(Cl)cc1)C(=O)N[C@@H](Cc1ccncc1)C(=O)NCCc1cccc2ccccc12 [Compound 11, 4-amino-N-((S)-1-((S)-3-(4-chlorophenyl)-1-((S)-1-(2-(naphthalen-1-yl)ethylamino)-1-oxo-3-(pyridin-4-yl)propan-2-ylamino)-1-oxopropan-2-ylamino)-3-(5-hydroxy-1H-indol-3-yl)-1-oxopropan-2-yl)butanamide]
Ki (EphA4 LBD [2]): ≥ 5 µM

NCCCC(=O)N[C@@H](Cc1c[nH]c2ccc(O)cc12)C(=O)N[C@@H](Cc1ccc(Cl)cc1)C(=O)N[C@@H](Cc1ccncc1)C(=O)NCCc1c[nH]c2ccccc12 [Compound 5, N-((S)-1-((S)-1-((S)-1-(2-(1H-indol-3-yl)ethylamino)-1-oxo-3-(pyridin-4-yl)propan-2-ylamino)-3-(4-chlorophenyl)-1-oxopropan-2-ylamino)-3-(5-hydroxy-1H-indol-3-yl)-1-oxopropan-2-yl)-4-aminobutanamide]
Ki (EphA4 LBD [2]): 1 to 5 µM | Kd (EphA4 LBD [3]): 1 to 5 µM

NCCCC(=O)N[C@@H](Cc1c[nH]c2ccc(O)cc12)C(=O)N[C@@H](Cc1ccc(Cl)cc1)C(=O)N[C@@H](Cc1ccncc1)C(=O)NCCc1c[nH]c2ccc(O)cc12 [Compound 8, 4-amino-N-((S)-1-((S)-3-(4-chlorophenyl)-1-((S)-1-(2-(5-hydroxy-1H-indol-3-yl)ethylamino)-1-oxo-3-(pyridin-4-yl)propan-2-ylamino)-1-oxopropan-2-ylamino)-3-(5-hydroxy-1H-indol-3-yl)-1-oxopropan-2-yl)butanamide]
Ki (EphA4 LBD [2]): 1 to 5 µM | Kd (EphA4 LBD [3]): 1 to 5 µM

KYLPYWPVLSSL
Kd for EphA4 (reported peptides) (EphA4): low micromolar range
